Holding throughout (assay): cell-based
In one assay the target is T1, rat CB2 receptor (Rattus norvegicus, UniProt Q9QZN9).
T1 sequence (Q9QZN9 1-360): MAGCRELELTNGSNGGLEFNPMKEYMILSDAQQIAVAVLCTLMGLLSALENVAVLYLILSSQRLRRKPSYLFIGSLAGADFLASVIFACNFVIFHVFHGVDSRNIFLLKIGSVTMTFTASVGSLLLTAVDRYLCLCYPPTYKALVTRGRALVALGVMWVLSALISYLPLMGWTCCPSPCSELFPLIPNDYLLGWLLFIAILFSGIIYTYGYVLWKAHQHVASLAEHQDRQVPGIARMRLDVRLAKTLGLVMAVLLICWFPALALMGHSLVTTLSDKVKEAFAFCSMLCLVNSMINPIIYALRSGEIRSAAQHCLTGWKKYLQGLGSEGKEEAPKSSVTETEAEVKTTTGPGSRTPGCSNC
It counts as cell-based. Particulars: for inverse agonist mark, rat CB2 receptor: asterisk at the compound number.

The next assay addresses human CB2 receptor (Homo sapiens, UniProt P34972). The class given is cell-based.
In another assay the target is human CB1 receptor (Homo sapiens, UniProt P21554). The following applies: for inverse agonist mark, human CB1 receptor: asterisk at the compound number.
Setting [1] is: change in intracellular cAMP, CHO-K1 hCB2 cells, class AR, read-out: EC50 values for human CB2 receptor.

SMILES strings stand for the structures. Read-outs that look alike come from different tables or passages of the source.

Chain of human CB2 receptor (P34972 whole entry): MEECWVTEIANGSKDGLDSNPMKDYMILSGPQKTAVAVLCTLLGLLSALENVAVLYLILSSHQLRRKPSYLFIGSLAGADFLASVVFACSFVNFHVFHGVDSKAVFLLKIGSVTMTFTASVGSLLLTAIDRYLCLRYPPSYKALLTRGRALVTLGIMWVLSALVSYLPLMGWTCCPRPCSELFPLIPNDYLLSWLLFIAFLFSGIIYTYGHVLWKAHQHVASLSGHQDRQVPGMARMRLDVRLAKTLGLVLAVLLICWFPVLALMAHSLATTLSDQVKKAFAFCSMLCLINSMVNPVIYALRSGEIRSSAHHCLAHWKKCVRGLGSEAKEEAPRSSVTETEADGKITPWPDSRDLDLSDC
Chain of human CB1 receptor (P21554 whole entry): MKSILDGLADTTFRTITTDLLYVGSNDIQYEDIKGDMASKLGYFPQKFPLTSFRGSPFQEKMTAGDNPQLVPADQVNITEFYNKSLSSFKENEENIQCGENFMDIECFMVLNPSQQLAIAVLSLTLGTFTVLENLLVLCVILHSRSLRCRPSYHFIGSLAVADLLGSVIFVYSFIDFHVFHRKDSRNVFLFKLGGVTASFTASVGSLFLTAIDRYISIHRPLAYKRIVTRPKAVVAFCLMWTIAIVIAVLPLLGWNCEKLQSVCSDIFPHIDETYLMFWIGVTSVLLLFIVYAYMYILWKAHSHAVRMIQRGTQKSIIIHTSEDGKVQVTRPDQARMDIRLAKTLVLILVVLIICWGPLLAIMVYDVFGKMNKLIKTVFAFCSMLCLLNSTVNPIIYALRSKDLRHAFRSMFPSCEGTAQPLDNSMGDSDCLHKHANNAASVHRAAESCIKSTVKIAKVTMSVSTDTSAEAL

On to `CC(C)(C)c1cc(NC(=O)c2cnc3c(c2)N(S(=O)(=O)N2CCC(F)(F)C2)CCO3)no1` [Example 165, N-(5-tert-butylisoxazol-3-yl)-1-(3,3-difluoro-pyrrolidin-1-ylsulfonyl)-2,3-dihydro-1H-pyrido-[2,3-b][1,4]oxazine-7-carboxamide], for which the “inverse agonist mark, rat CB2 receptor” value at rat CB2 receptor is on record as 108, 114, 117, 122, 126, 128, 129, 130, 141, 147, 162*, 165*, 179,. For the same molecule, on human CB2 receptor, the EC50 (commonly the concentration that produces a half-maximal response) is over 30 µM.

For `CC(C)(C)c1cc(NC(=O)c2cnc3c(c2)N(S(=O)(=O)N2CCC(C(F)(F)F)CC2)CCO3)no1` [Example 154, N-(5-tert-butylisoxazol-3-yl)-1-(4-(trifluoromethyl)piperidin-1-ylsulfonyl)-2,3-dihydro-1H-pyrido[2,3-b][1,4]oxazine-7-carboxamide], at rat CB2 receptor, the 50% effective concentration (EC50) is at most 0.03 µM and the “inverse agonist mark, rat CB2 receptor” value is 146, 148, 149, 150, 151, 152, 153*, 154*, 155, 156, 157, 163, 164,. In addition, the “inverse agonist mark, human CB2 receptor” value at human CB2 receptor (asterisk at the compound number) is 121, 124, 131, 136, 137, 138, 139, 146, 150, 152, 154*, 155, 157,.

For `CC(C)(C)NC(=O)c1cnc2c(c1)N(S(=O)(=O)c1ccc(C#N)cc1)CCO2` [Example 3, N-tert-butyl-1-(4-cyanophenylsulfonyl)-2,3-dihydro-1H-pyrido[2,3-b][1,4]oxazine-7-carboxamide], the EC50 on rat CB2 receptor and at human CB2 receptor was at most 0.03 µM throughout.

As for `O=C(c1cnc2c(c1)N(S(=O)(=O)c1ccc(Cl)c(Cl)c1)CCO2)N1CCN(S(=O)(=O)c2ccccc2)CC1` [Example 118, (1-(3,4-dichlorophenyl-sulfonyl)-2,3-dihydro-1H-pyrido[2,3-b][1,4]oxazin-7-yl)(4-(phenylsulfonyl)piperazin-1-yl)methanone], the “inverse agonist mark, rat CB2 receptor” value at rat CB2 receptor was 118*, 120, 123, 125, 127, 134, 143, 145, 161, 174, 175, 176, 198,. Moreover, the 50% effective concentration (EC50) at human CB2 receptor (setting [1]) is over 30 µM.

With `CC(C)(C)NC(=O)c1cnc2c(c1)N(S(=O)(=O)c1ccc(Cl)cc1)CCO2` [Example 24, N-tert-butyl-1-(4-chlorophenylsulfonyl)-2,3-dihydro-1H-pyrido[2,3-b][1,4]oxazine-7-carboxamide], the EC50 on rat CB2 receptor and on human CB2 receptor was at most 0.03 µM in each case.

With `CCC(C)(C)NC(=O)c1cnc2c(c1)N(S(=O)(=O)N1CCC(Cl)CC1)CCO2` [Example 185, 1-(4-chloropiperidin-1-ylsulfonyl)-N-tert-pentyl-2,3-dihydro-1H-pyrido[2,3-b][1,4]oxazine-7-carboxamide], the EC50 is at most 0.03 µM at rat CB2 receptor and over 30 µM at human CB2 receptor.

Turning to `CCN(CC)C(=O)c1cnc2c(c1)N(S(=O)(=O)c1cccnc1)CCO2` [Example 18, N,N-diethyl-1-(pyridin-3-ylsulfonyl)-2,3-dihydro-1H-pyrido[2,3-b][1,4]oxazine-7-carboxamide], the EC50 at human CB1 receptor and at human CB2 receptor (setting [1]) was over 30 µM throughout.

Consider `O=C(c1cnc2c(c1)N(S(=O)(=O)c1ccc(Cl)c(Cl)c1)CCO2)N1CCN(c2ccccn2)CC1` [Example 117], for which, at human CB1 receptor, the “inverse agonist mark, human CB1 receptor” value is given as 11, 24, 25, 42, 43*, 67, 117*, 121, 124, 131, 132, 148, 150, 151,. This molecule also had a concentration giving a half-maximal response (EC50) on human CB2 receptor of over 30 µM.

`CC(C)(C)NC(=O)c1cnc2c(c1)N(S(=O)(=O)Cc1ccc(C(F)(F)F)cc1)CCO2` [Example 63, N-tert-butyl-1-(4-(trifluoromethyl)benzylsulf-onyl)-2,3-dihydro-1H-pyrido[2,3-b][1,4]oxazine-7-carboxamide]: the EC50 on human CB1 receptor and on human CB2 receptor (setting [1]) was over 30 µM in each case.

In the case of `CCS(=O)(=O)N1CCOc2ncc(C(=O)NC(C)(C)C)cc21` [Example 80, N-tert-butyl-1-(ethylsulfonyl)-2,3-dihydro-1H-pyrido[2,3-b][1,4]oxazine-7-carboxamide], the EC50 on human CB1 receptor and at human CB2 receptor was over 30 µM in each case.

Regarding `CC(C)(CO)NC(=O)c1cnc2c(c1)N(S(=O)(=O)N1CCc3ccccc3C1)CCO2` [Example 190, 1-(3,4-dihydroisoquinolin-2(1H)-ylsulfonyl)-N-(1-hydroxy-2-methylpropan-2-yl)-2,3-dihydro-1H-pyrido[2,3-b][1,4]oxazine-7-carboxamide], the 50% effective concentration (EC50) at human CB1 receptor and on human CB2 receptor was over 30 µM throughout.

In the case of `CC(C)(C)NC(=O)c1cnc2c(c1)N(S(=O)(=O)c1ccccc1OC(F)(F)F)CCO2` [Example 84, N-tert-butyl-1-(2-(trifluoromethoxy)phenyl-sulfonyl)-2,3-dihydro-1H-pyrido[2,3-b][1,4]oxazine-7-carboxamide], the EC50 on human CB1 receptor and at human CB2 receptor (setting [1]) was over 30 µM throughout.

Take `O=C(N[C@H]1CC[C@H](O)CC1)c1cnc2c(c1)N(S(=O)(=O)c1ccc(Cl)c(Cl)c1)CCO2` [Example 134, 1-(3,4-dichlorophenyl-sulfonyl)-N-(trans-4-hydroxycyclohexyl)-2,3-dihydro-1H-pyrido[2,3-b][1,4]oxazine-7-carboxamide]: the 50% effective concentration (EC50) at human CB1 receptor and on human CB2 receptor (setting [1]) was over 30 µM in each case.

For the molecule `CC(C)(C)NC(=O)c1cnc2c(c1)N(S(=O)(=O)N1CCC(c3ccccc3)CC1)CCO2` [Example 158, N-tert-butyl-1-(4-phenylpiperidin-1-ylsulfonyl)-2,3-dihydro-1H-pyrido[2,3-b][1,4]oxazine-7-carboxamide], the half-maximal effective concentration (EC50) on human CB1 receptor and at human CB2 receptor was over 30 µM throughout.

As for `CCN(CCN(C)C)C(=O)c1cnc2c(c1)N(S(=O)(=O)c1ccc(C(F)(F)F)cc1)CCO2` [Example 38, N-(2-(dimethylamino)-ethyl)-N-ethyl-1-(4-(trifluoromethyl)phenylsulf-onyl)-2,3-dihydro-1H-pyrido[2,3-b][1,4]oxazine-7-carboxamide], the concentration giving a half-maximal response (EC50) on human CB1 receptor and on human CB2 receptor (setting [1]) was over 30 µM in each case.

On to `O=C(c1cnc2c(c1)N(S(=O)(=O)c1ccc(Cl)c(Cl)c1)CCO2)N1CC(O)C1` [Example 125, (1-(3,4-dichlorophenyl-sulfonyl)-2,3-dihydro-1H-pyrido[2,3-b][1,4]oxazin-7-yl)(3-hydroxyazetidin-1-yl)methanone], for which the half-maximal effective concentration (EC50) at human CB1 receptor and at human CB2 receptor (setting [1]) was over 30 µM throughout.

With `CN1CCN(S(=O)(=O)N2CCOc3ncc(C(=O)NC(C)(C)C)cc32)CC1` [Example 174, N-tert-butyl-1-(4-methylpiperazin-1-ylsulfonyl)-2,3-dihydro-1H-pyrido[2,3-b][1,4] oxazine-7-carboxamide], the EC50 on human CB1 receptor and on human CB2 receptor was over 30 µM in each case.

For the molecule `O=C(NC1(C(=O)O)CCC1)c1cnc2c(c1)N(S(=O)(=O)c1ccc(C(F)(F)F)cc1)CCO2` [Example 208, 1-(1-(4-(trifluoromethyl)phenylsulfonyl)-2,3-dihydro-1H-pyrido[2,3-b][1,4]oxazine-7-carboxamido)cyclobutanecarboxylic acid], the concentration for a half-maximal effect (EC50) at human CB1 receptor and at human CB2 receptor (setting [1]) was over 30 µM throughout.

Turning to `Cn1cnc(S(=O)(=O)N2CCOc3ncc(C(=O)NC4CCCC4)cc32)c1` [Example 31, N-cyclopentyl-1-(1-methyl-1H-imidazol-4-ylsulfonyl)-2,3-dihydro-1H-pyrido[2,3-b][1,4] oxazine-7-carboxamide], the EC50 on human CB1 receptor and at human CB2 receptor (setting [1]) was over 30 µM throughout.

Take `CC(C)(C)NC(=O)c1cnc2c(c1)N(S(=O)(=O)c1cc(Cl)cc(Cl)c1)CCO2` [Example 53, N-tert-butyl-1-(3,5-dichlorophenylsulfonyl)-2,3-dihydro-1H-pyrido[2,3-b][1,4]oxazine-7-carboxamide]: the EC50 at human CB1 receptor and at human CB2 receptor was over 30 µM each time.

Turning to `CC(C)(C)NC(=O)c1cnc2c(c1)N(S(=O)(=O)N1CCc3ccccc3C1)CCO2` [Example 188, N-tert-butyl-1-(3,4-dihydroisoquinolin-2(1H)-ylsulfonyl)-2,3-dihydro-1H-pyrido[2,3-b][1,4]oxazine-7-carboxamide], the “inverse agonist mark, human CB1 receptor” value at human CB1 receptor was 152, 154, 155, 165, 184, 185, 187, 188*, 212, 214, 217, 227. At human CB2 receptor, this molecule came in with a concentration giving a half-maximal response (EC50) of over 30 µM.

In the case of `CC(C)(CO)CNC(=O)c1cnc2c(c1)N(S(=O)(=O)N1CCC(c3ccccc3)CC1)CCO2` [Example 161, N-(3-hydroxy-2,2-dimethylpropyl)-1-(4-phenylpiperidin-1-ylsulfonyl)-2,3-dihydro-1H-pyrido[2,3-b][1,4]oxazine-7-carboxamide], the 50% effective concentration (EC50) at human CB1 receptor and at human CB2 receptor was over 30 µM in each case.

On to `CC(C)(C)NC(=O)c1cnc2c(c1)N(S(=O)(=O)c1cccc3ccccc13)CCO2` [Example 87, N-tert-butyl-1-(naphthalen-1-ylsulfonyl)-2,3-dihydro-1H-pyrido[2,3-b][1,4]oxazine-7-carboxamide], for which the half-maximal effective concentration (EC50) on human CB1 receptor and on human CB2 receptor was over 30 µM in each case.

On to `O=C(NCCO)c1cnc2c(c1)N(S(=O)(=O)c1ccc(Cl)cc1F)CCO2` [Example 115, 1-(4-chloro-2-fluorophenylsulfonyl)-N-(2-hydroxyethyl)-2,3-dihydro-1H-pyrido[2,3-b][1,4]oxazine-7-carboxamide], for which the half-maximal effective concentration (EC50) on human CB1 receptor and at human CB2 receptor (setting [1]) was over 30 µM throughout.

Regarding `CCC(C)(C)NC(=O)c1cnc2c(c1)N(S(=O)(=O)N1CCc3ccccc3C1)CCO2` [Example 189, 1-(3,4-dihydroisoquinolin-2(1H)-ylsulfonyl)-N-tert-pentyl-2,3-dihydro-1H-pyrido[2,3-b][1,4]oxazine-7-carboxamide], the EC50 at human CB1 receptor and at human CB2 receptor was over 30 µM throughout.

In the case of `Cn1cnc(S(=O)(=O)N2CCOc3ncc(C(=O)NC(C)(C)C)cc32)c1` [Example 30, N-tert-butyl-1-(1-methyl-1H-imidazol-4-ylsulfonyl)-2,3-dihydro-1H-pyrido-[2,3-b][1,4]oxazine-7-carboxamide], the concentration for a half-maximal effect (EC50) at human CB1 receptor and at human CB2 receptor (setting [1]) was over 30 µM in each case.
